From US10208059B2, “Heterocyclic modulators of HIF activity for treatment of disease” (Board of Regents, University of Texas System, priority 2012, dated 2019)

test system: 293T-HRE-GFP-luc cells; assay: Cell-based reporter assay for IC50 determinations; conditions: hypoxia 6 hrs (1% O2), luminescence, read-out: IC50 Classification
Summary of the method: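 Cells carrying an HRE-driven GFP-luciferase reporter, seeded at 12,000/well and held overnight, then given 1:3 serial compound dilutions (DMSO, further diluted 1:50 in medium). After 30 min in normoxia, plates held 6 h in hypoxia (1% O2, 37 °C); luciferase luminescence read, IC50 by four-parameter logistic fit.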

`COCCCNc1nccc(Cn2nc(-c3nc(-c4ccc(OC(F)(F)F)cc4)no3)nc2C)n1` [Example 117, N-(3-methoxypropyl)-4-((5-methyl-3-(3-(4-(trifluoromethoxy)phenyl)-1,2,4-oxadiazol-5-yl)-1H-1,2,4-triazol-1-yl)methyl)pyrimidin-2-amine] and `COCCCOc1ccc(Cn2nc(-c3nc(-c4ccc(OC(F)(F)F)cc4)no3)nc2C)cn1` [Example 129, 2-(3-methoxypropoxy)-5-[(5-methyl-3-{3-[4-(trifluoromethoxy)phenyl]-1,2,4-oxadiazol-5-yl}-1H-1,2,4-triazol-1-yl)methyl]pyridine] fall in the same range of IC50: 100 to 1000 nM for the first, 100 to 1000 nM for the second.

First: Cc1nc(-c2nc(-c3ccc(OC(F)(F)F)cc3)no2)nn1Cc1cccc(C(N)=O)c1 [Example 118, 3-((5-methyl-3-(3-(4-(trifluoromethoxy)phenyl)-1,2,4-oxadiazol-5-yl)-1H-1,2,4-triazol-1-yl)methyl)benzamide]
Second: Cc1nc(-c2nc(-c3ccc(OC(F)(F)F)cc3)no2)nn1Cc1cccc(C(=O)O)c1 [Example 119, 3-((5-methyl-3-(3-(4-(trifluoromethoxy)phenyl)-1,2,4-oxadiazol-5-yl)-1H-1,2,4-triazol-1-yl)methyl)benzoic acid]
The IC50 of the first is lower: under 100 nM for the first, 100 to 1000 nM for the second.

`CNC(=O)c1cccc(Cn2nc(-c3nc(-c4ccc(OC(F)(F)F)cc4)no3)nc2C)c1` [Example 120, N-methyl-3-[(5-methyl-3-{3-[4-(trifluoromethoxy)phenyl]-1,2,4-oxadiazol-5-yl}-1H-1 2 4-triazol-1-yl)methyl]benzamide] and `Cc1nc(-c2nc(-c3ccc(OC(F)(F)F)cc3)no2)nn1Cc1cccc(C(=O)NC(C)C)c1` [Example 122, 3-[(5-methyl-3-{3-[4-(trifluoromethoxy)phenyl]-1,2,4-oxadiazol-5-yl}-1H-1,2,4-triazol-1-yl)methyl]-N-(propan-2-yl)benzamide] cannot be ordered by IC50: under 100 nM for the first, under 100 nM for the second.

First: Cc1nc(-c2nc(-c3ccc(OC(F)(F)F)cc3)no2)nn1Cc1ccnc(N2CCCC2)n1 [Example 121, 4-[(5-methyl-3-{3-[4-(trifluoromethoxy)phenyl]-1,2,4-oxadiazol-5-yl}-1H-1,2,4-triazol-1-yl)methyl]-2-(pyrrolidin-1-yl)pyrimidine]
Second: Cc1nc(-c2nc(-c3ccc(OC(F)(F)F)cc3)no2)nn1Cc1cccc(S(=O)(=O)N2CCCC2)c1 [Example 133, 5-(5-methyl-1-{[3-(pyrrolidine-1-sulfonyl)phenyl]methyl}-1H-1,2,4-triazol-3-yl)-3-[4-(trifluoromethoxy)phenyl]-1,2,4-oxadiazole]
The IC50 of the first is higher: 100 to 1000 nM for the first, under 100 nM for the second.

`Cc1nc(-c2nc(-c3ccc(OC(F)(F)F)cc3)no2)nn1Cc1cccc(C(=O)N2CC(O)C2)c1` [Example 123, 1-{3-[(5-methyl-3-{3-[4-(trifluoromethoxy)phenyl]-1,2,4-oxadiazol-5-yl}-1H-1,2,4-triazol-1-yl)methyl]benzoyl}azetidin-3-ol] and `Cc1nc(-c2nc(-c3ccc(OC(F)(F)F)cc3)no2)nn1Cc1cccc(C(=O)NC2CC2)c1` [Example 124, N-cyclopropyl-3-[(5-methyl-3-{3-[4-(trifluoromethoxy]phenyl]-1,2,4-oxadiazol-5-yl}-1H-1,2,4-triazol-1-yl)methyl]benzamide] cannot be ordered by IC50: under 100 nM for the first, under 100 nM for the second.

`Cc1nc(-c2nc(-c3ccc(OC(F)(F)F)cc3)no2)nn1Cc1cccc(C(=O)NC(C)(C)CO)c1` [Example 125, N-(1-hydroxy-2-methylpropan-2-yl)-3-[(5-methyl-3-{3-[4-(trifluoromethoxy)phenyl]-1,2,4-oxadiazol-5-yl}-1H-1,2,4-triazol-1-yl)methyl]benzamide] and `Cc1nc(-c2nc(-c3ccc(OC(F)(F)F)cc3)no2)nn1Cc1cccc(S(=O)(=O)NCC(C)(C)O)c1` [Example 138, 2-hydroxy-2-methyl-S-{3-[(5-methyl-3-{3-[4-(trifluoromethoxy)phenyl]-1,2,4-oxadiazol-5-yl}-1H-1,2,4-triazol-1-yl)methyl]phenyl}propane-1-sulfonamido] cannot be ordered by IC50: under 100 nM for the first, under 100 nM for the second.

`Cc1nc(-c2nc(-c3ccc(OC(F)(F)F)cc3)no2)nn1Cc1cccc(OCCC(C)(C)O)c1` [Example 126, 2-methyl-4-{3-[(5-methyl-3-{3-[4-(trifluoromethoxy)phenyl]-1,2,4-oxadiazol-5-yl}-1H-1,2,4-triazol-1-yl)methyl]phenoxy}butan-2-ol] and `CNS(=O)(=O)c1cccc(Cn2nc(-c3nc(-c4ccc(OC(F)(F)F)cc4)no3)nc2C)c1` [Example 136, N-methyl-3-[(5-methyl-3-{3-[4-(trifluoromethoxy)phenyl]-1,2,4-oxadiazol-5-yl}-1H-1,2,4-triazol-1-yl)methyl]benzene-1-sulfonamide] cannot be ordered by IC50: under 100 nM for the first, under 100 nM for the second.

Compared with `Cc1nc(-c2nc(-c3ccc(OC(F)(F)F)cc3)no2)nn1Cc1ccc(S(C)(=O)=O)cc1` [Example 127, 5-{1-[(4-methanesulfonylphenyl)methyl]-5-methyl-1H-1,2,4-triazol-3-yl}-3-[4-(trifluoromethoxy)phenyl]-1,2,4-oxadiazole], `CCCNS(=O)(=O)c1cccc(Cn2nc(-c3nc(-c4ccc(OC(F)(F)F)cc4)no3)nc2C)c1` [Example 137, 3-[(5-methyl-3-{3-[4-(trifluoromethoxy)phenyl]-1,2,4-oxadiazol-5-yl}-1H-1,2,4-triazol-1-yl)methyl]-N-propylbenzene-1-sulfonamide] is lower in IC50: 100 to 1000 nM for the first, under 100 nM for the second. The second is the more potent here.

`Cc1nc(-c2nc(-c3ccc(OC(F)(F)F)cc3)no2)nn1Cc1ccc(=O)n(CCN(C)C)c1` [Example 128, 1-[2-(dimethylamino)ethyl]-5-[(5-methyl-3-{3-[4-(trifluoromethoxy)phenyl]-1,2,4-oxadiazol-5-yl}-1H-1,2,4-triazol-1-yl)methyl]-1,2-dihydropyridin-2-one] and `COc1cc(Cn2nc(-c3nc(-c4ccc(OC(F)(F)F)cc4)no3)nc2C)ccn1` [Example 135, 2-methoxy-4-[(5-methyl-3-{3-[4-(trifluoromethoxy)phenyl]-1,2,4-oxadiazol-5-yl}-1H-1,2,4-triazol-1-yl)methyl]pyridine] fall in the same range of IC50: 100 to 1000 nM for the first, 100 to 1000 nM for the second.

`Cc1nc(-c2nc(-c3ccc(OC(F)(F)F)cc3)no2)nn1Cc1cccc(S(=O)(=O)NC2CC2)c1` [Example 130, N-cyclopropyl-3-[(5-methyl-3-{3-[4-(trifluoromethoxy)phenyl]-1,2,4-oxadiazol-5-yl}-1H-1,2,4-triazol-1-yl)methyl]benzene-1-sulfonamide] and `Cc1nc(-c2nc(-c3ccc(OC(F)(F)F)cc3)no2)nn1Cc1cccc(S(=O)(=O)NCCO)c1` [Example 131, 2-hydroxy-S-(3-[(5-methyl-3-{3-[4-(trifluoromethoxy)phenyl]-1,2,4-oxadiazol-5-yl}-1H-1,2,4-triazol-1-yl)methyl]phenyl}ethane-1-sulfonamido] cannot be ordered by IC50: under 100 nM for the first, under 100 nM for the second.

Compared with `COC(=O)[C@@H](NS(=O)(=O)c1cccc(Cn2nc(-c3nc(-c4ccc(OC(F)(F)F)cc4)no3)nc2C)c1)C(C)C` [Example 132, methyl (2S)-3-methyl-2-{3-[(5-methyl-3-{3-[4-(trifluoromethoxy)phenyl]-1,2,4-oxadiazol-5-yl}-1H-1,2,4-triazol-1-yl)methyl]benzenesulfonamido}butanoate], `COC(=O)CNS(=O)(=O)c1cccc(Cn2nc(-c3nc(-c4ccc(OC(F)(F)F)cc4)no3)nc2C)c1` [Example 134, methyl 2-{3-[(5-methyl-3-{3-[4-(trifluoromethoxy)phenyl]-1,2,4-oxadiazol-5-yl}-1H-1,2,4-triazol-1-yl)methyl]benzenesulfonamido}acetate] is lower in IC50: 100 to 1000 nM for the first, under 100 nM for the second.
